Assays:
[1] = molecular target: Serine/threonine-protein kinase PLK2 (Homo sapiens, UniProt Q9NYY3); assay: Inhibition of PLK2 (unknown origin) at 1 uM relative to control
[2] = Plasma protein binding in human; format: ADME, cell-free; details: read-out: PPB (converted)
[3] = molecular target: T1, Mitogen-activated protein kinase kinase kinase 19 (Homo sapiens) (UniProt Q56UN5); assay: Inhibition of YSK4 (unknown origin) at 1 uM relative to control
T1 sequence (whole entry): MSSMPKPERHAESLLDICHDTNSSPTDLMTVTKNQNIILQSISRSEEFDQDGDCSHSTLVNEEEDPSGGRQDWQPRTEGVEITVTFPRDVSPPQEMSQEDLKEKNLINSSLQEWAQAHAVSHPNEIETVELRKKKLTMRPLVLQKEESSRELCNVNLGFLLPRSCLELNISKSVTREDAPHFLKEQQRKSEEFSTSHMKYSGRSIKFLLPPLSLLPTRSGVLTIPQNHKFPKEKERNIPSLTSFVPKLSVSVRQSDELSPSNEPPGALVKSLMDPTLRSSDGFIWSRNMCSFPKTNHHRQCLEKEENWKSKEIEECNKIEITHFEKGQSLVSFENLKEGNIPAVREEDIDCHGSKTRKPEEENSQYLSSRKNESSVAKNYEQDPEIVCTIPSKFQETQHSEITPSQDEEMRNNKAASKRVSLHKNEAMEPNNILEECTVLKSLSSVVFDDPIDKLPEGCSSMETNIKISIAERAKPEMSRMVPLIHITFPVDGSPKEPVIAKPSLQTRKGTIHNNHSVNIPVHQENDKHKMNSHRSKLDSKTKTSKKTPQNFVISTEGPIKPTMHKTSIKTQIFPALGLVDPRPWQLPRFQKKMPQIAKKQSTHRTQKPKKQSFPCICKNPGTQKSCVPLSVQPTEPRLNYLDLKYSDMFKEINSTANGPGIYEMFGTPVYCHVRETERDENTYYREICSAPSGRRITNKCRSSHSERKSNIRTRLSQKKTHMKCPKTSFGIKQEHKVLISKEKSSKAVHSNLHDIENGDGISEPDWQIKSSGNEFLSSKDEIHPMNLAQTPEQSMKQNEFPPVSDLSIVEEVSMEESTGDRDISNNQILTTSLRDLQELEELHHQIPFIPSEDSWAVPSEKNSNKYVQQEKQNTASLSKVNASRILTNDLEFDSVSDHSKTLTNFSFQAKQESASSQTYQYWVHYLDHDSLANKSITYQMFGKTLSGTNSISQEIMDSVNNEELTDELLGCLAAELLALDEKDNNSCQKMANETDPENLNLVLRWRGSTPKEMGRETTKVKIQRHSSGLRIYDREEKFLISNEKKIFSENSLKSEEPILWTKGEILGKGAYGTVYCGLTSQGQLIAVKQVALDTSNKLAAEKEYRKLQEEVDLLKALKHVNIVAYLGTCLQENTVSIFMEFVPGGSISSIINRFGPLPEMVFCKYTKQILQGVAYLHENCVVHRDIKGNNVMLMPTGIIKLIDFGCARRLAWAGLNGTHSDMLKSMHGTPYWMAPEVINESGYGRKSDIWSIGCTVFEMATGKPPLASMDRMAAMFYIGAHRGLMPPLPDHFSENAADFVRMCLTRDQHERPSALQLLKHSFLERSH

[4] = AUC(0 to 24 hrs) in mouse at 60 mg/kg, po; format: ADME, organism-based; design: time < 24 hr, route oral, dose 60 mg/kg; details: in vivo
[5] = molecular target: Serine/threonine-protein kinase PLK3 (Homo sapiens, UniProt Q9H4B4); assay: Inhibition of PLK3 (unknown origin) at 1 uM relative to control
[6] = molecular target: T2, Cyclin-G-associated kinase (Homo sapiens) (UniProt O14976); assay: Inhibition of GAK (unknown origin) at 1 uM relative to control
T2 sequence (whole entry): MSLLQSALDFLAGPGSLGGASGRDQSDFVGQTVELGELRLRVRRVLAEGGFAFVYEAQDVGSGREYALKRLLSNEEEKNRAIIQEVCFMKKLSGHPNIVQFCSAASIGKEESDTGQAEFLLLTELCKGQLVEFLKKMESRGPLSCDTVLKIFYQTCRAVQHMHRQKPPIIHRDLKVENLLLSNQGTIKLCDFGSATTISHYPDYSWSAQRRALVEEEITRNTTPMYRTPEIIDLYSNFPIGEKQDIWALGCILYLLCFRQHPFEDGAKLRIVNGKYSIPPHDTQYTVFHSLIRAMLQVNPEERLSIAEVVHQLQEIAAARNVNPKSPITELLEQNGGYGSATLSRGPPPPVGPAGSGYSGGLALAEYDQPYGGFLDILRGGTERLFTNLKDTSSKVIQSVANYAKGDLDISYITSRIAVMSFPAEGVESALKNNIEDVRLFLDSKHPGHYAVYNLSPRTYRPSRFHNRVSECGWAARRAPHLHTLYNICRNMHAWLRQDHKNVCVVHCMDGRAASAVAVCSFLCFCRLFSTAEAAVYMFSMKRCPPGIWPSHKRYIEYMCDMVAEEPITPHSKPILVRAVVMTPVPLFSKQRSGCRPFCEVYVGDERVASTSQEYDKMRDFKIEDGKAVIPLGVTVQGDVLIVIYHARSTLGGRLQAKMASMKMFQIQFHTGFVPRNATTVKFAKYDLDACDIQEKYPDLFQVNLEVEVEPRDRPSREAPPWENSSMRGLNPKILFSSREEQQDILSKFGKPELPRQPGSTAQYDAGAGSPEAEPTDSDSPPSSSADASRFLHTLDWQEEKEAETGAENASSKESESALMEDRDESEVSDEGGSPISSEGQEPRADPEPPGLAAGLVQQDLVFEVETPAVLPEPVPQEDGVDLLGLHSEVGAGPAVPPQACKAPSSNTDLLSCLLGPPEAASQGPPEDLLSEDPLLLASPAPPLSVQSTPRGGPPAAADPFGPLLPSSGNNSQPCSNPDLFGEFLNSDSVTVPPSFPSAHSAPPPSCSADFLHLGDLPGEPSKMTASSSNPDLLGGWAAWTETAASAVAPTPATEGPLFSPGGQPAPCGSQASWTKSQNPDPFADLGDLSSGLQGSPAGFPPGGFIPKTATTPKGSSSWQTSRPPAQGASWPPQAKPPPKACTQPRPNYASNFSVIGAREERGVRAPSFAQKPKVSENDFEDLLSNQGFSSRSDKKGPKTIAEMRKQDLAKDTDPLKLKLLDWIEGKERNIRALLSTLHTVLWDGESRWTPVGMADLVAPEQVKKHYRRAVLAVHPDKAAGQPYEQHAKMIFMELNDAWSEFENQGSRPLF

Wee1-like protein kinase = Wee1-like protein kinase (Homo sapiens, UniProt P30291)
Description: Displacement of Alexa Fluor labelled kinase tracer178 from WEE1 (unknown origin) incubated for 60 mins by FRET assay

[7] = Intrinsic clearance in human microsomes; format: ADME, Microsome
[8] = molecular target: Epidermal growth factor receptor (Homo sapiens) (UniProt P00533); assay: Inhibition of EGFR (unknown origin) at 1 uM relative to control
[9] = Octanol/buffer distribution coefficient, logD of the compound at pH 7.4; format: physicochemical
NCI-H23 = assay: Antiproliferative activity against human NCI-H23 cells assessed as reduction in cell viability after 4 days by CellTiter-Glo assay; details: Homo sapiens, NCI-H23, 96 h
[10] = Intrinsic clearance in mouse microsomes; format: ADME, Microsome
[11] = Plasma protein binding in mouse; format: ADME, cell-free; details: read-out: PPB (converted)
[12] = AUC(0 to 24 hrs) in rat at 60 mg/kg, po; format: ADME, organism-based; design: time < 24 hr, route oral, dose 60 mg/kg; details: in vivo

Chain of Wee1-like protein kinase (P30291 whole entry): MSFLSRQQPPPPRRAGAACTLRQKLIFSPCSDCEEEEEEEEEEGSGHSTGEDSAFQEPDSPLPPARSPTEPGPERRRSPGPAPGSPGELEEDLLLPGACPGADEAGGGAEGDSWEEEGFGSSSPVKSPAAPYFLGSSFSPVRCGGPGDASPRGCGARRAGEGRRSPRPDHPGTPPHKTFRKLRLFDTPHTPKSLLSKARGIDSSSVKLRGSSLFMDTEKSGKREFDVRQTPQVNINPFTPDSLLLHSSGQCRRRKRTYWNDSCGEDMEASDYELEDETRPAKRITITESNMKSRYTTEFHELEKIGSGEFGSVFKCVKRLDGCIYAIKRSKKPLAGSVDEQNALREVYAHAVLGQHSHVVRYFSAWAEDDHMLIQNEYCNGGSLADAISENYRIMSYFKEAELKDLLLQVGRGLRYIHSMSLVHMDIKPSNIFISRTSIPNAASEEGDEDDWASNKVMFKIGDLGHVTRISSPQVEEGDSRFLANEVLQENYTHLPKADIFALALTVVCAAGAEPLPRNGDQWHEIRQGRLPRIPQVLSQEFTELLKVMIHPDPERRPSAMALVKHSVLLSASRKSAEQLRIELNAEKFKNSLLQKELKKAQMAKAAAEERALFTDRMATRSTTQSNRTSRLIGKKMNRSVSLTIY
Chain of Serine/threonine-protein kinase PLK3 (Q9H4B4 whole entry, looked up): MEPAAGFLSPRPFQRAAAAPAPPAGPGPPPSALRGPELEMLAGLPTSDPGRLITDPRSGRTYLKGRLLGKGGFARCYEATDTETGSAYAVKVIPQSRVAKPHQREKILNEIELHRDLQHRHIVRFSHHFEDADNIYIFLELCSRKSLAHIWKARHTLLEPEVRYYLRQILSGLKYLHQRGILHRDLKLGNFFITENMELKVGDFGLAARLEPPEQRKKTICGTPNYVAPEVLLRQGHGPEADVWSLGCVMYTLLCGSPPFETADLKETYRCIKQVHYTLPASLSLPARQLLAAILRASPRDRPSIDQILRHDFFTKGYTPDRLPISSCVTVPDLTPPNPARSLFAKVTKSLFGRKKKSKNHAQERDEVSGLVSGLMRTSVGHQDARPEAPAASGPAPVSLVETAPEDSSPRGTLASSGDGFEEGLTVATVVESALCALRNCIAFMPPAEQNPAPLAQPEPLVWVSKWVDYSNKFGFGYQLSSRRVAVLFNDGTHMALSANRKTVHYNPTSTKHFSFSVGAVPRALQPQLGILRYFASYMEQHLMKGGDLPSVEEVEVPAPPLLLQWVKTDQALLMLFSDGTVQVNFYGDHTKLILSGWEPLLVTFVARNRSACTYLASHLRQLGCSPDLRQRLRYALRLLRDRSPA
Chain of Serine/threonine-protein kinase PLK2 (Q9NYY3 whole entry, looked up): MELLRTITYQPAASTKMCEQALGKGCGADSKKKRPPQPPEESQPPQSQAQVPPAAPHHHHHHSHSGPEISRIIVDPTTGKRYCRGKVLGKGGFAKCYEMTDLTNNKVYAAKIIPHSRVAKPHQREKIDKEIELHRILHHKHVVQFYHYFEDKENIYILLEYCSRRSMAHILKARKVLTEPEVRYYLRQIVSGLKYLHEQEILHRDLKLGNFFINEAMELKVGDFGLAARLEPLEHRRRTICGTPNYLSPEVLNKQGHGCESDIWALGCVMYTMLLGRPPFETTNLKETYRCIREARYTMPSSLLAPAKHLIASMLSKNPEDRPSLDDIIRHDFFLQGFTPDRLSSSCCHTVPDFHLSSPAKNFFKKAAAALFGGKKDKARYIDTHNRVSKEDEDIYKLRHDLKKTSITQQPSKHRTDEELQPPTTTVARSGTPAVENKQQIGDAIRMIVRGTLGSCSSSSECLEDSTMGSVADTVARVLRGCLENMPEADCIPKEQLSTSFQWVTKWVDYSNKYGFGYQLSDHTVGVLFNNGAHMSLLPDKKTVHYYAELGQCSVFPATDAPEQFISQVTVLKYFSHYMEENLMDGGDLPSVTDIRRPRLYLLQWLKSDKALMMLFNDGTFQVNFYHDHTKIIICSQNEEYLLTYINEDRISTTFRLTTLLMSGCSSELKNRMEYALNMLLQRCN
Chain of Epidermal growth factor receptor (Homo sapiens) (P00533 whole entry): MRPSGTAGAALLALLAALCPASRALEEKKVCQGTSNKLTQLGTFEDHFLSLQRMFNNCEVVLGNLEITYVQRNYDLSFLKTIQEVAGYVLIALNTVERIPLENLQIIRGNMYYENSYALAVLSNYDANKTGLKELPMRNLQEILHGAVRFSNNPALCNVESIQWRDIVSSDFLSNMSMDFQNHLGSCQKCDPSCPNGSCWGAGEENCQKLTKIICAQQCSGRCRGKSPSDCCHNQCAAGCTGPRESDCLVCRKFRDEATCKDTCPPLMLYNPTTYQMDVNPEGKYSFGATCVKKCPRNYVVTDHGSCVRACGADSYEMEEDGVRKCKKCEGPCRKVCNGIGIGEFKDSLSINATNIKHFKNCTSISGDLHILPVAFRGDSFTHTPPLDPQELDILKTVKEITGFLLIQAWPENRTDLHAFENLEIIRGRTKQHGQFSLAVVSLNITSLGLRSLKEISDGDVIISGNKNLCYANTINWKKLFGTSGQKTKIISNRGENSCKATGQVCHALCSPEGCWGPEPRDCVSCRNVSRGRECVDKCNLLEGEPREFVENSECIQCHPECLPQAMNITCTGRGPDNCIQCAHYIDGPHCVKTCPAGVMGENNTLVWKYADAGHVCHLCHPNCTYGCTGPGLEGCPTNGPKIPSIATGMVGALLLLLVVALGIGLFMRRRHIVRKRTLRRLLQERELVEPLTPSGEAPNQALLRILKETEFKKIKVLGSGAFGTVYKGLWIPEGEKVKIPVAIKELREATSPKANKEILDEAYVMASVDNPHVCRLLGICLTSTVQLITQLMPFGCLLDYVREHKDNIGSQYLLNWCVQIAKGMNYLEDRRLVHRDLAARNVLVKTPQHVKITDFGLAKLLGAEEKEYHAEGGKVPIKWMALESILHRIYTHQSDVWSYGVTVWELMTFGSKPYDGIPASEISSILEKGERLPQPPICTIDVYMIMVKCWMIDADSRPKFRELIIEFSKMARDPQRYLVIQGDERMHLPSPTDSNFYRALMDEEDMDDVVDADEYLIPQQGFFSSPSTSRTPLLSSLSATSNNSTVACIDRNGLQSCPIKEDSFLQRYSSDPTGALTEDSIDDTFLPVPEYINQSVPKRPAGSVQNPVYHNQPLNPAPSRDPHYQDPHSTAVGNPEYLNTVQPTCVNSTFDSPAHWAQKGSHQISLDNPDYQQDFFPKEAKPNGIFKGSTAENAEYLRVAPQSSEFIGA

Structure (SMILES): C=CCn1c(=O)c2cnc(Nc3ccc(N4CCN(C)CC4)cc3)nc2n1-c1ccc2c(n1)[C@](C)(O)CC2
- inhibition [1]: > 90%
- fraction unbound [2]: 0.47
- inhibition [3]: > 90%
- AUC(0-t) at 24 h [4]: 27 µM·h
- inhibition [5]: 75%
- inhibition [6]: 75%
- IC50 (Wee1-like protein kinase): 4.8 nM
- CLint scaled [7]: 20 mL/min/kg
- inhibition [8]: > 90%
- logD [9]: 2
- IC50 (NCI-H23): 317 nM
- CLint scaled [10]: < 38 mL/min/kg
- fraction unbound [11]: 0.27
- AUC(0-t) at 24 h [12]: 35 µM·h

From ChEMBL document CHEMBL4842364 (J Med Chem, 2021)
